Read-outs that look alike come from different tables or passages of the source.
What was measured:
Type in all cases: cell-based
168 GPCRs [1] = molecular target: T1, 168 GPCRs (Homo sapiens, UniProt P47872); settings: SCTR
T1 construct: host or cells: PathHunter cell lines
Description: (§1) Studies were performed at Eurofins DiscoverX Corporation (Fremont, CA) using the GPCRmax assay according to the manufacturer’s protocols. […] Activity greater than 30% typically indicates agonist activity and inhibition greater than 50% indicates antagonist activity. This assay uses enzyme fragment complementation with […] as the functional reporter. When a GPCR is activated, […] is recruited and the reporter is detectable. GPCRmax offers a high-throughput screen of 168 GPCRs for agonist or antagonist activity. Briefly, PathHunter cell lines were propagated, seeded into 384-well microplates and incubated at 37°C. […] Microplates were read following signal generation with a PerkinElmer Envision™ instrument for chemiluminescent signal detection. Compound activity was analyzed using CBIS data analysis suite (ChemInnovation, CA) to determine raw values (RLU). For agonist mode assay, percentage activity was calculated using the following formula: % Activity =100% × (mean RLU of test sample - mean RLU of vehicle control) / (mean MAX control ligand - mean RLU of vehicle control). For antagonist mode assay, percentage inhibition was calculated using the following formula: % Inhibition =100% × (1 - (mean RLU of test sample - mean RLU of vehicle control) / (mean RLU of EC80 control - mean RLU of vehicle control)).

168 GPCRs [2] = molecular target: T2, 168 GPCRs (Homo sapiens, UniProt Q96G91); settings: P2RY11
T2 construct: host or cells: PathHunter cell lines
T2 sequence (Q96G91 1-374): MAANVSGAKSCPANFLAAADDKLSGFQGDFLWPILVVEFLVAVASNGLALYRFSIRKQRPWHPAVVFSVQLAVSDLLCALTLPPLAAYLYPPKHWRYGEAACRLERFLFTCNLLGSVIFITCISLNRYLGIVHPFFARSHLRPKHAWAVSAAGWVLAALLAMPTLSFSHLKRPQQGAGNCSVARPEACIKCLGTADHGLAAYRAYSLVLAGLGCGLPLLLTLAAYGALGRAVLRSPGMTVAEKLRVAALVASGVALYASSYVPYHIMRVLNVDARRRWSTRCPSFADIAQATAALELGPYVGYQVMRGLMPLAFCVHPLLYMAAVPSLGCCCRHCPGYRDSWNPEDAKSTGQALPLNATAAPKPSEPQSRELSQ
Description: as §1

168 GPCRs [3] = molecular target: T3, 168 GPCRs (Homo sapiens, UniProt Q99705)
T3 construct: host or cells: PathHunter cell lines
T3 sequence (Q99705 whole entry): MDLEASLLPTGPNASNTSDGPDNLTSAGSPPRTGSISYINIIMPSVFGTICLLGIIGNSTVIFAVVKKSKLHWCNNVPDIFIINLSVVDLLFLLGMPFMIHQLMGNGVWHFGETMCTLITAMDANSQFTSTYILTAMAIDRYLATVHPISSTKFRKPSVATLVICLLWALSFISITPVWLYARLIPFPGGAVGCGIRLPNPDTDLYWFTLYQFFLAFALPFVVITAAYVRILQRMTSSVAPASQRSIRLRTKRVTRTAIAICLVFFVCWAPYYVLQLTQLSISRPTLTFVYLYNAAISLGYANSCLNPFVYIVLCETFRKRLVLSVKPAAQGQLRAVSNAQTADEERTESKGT
Description: as §1

168 GPCRs [4] = molecular target: T4, 168 GPCRs (Homo sapiens, UniProt Q15077); settings: P2RY6
T4 construct: host or cells: PathHunter cell lines
T4 sequence (Q15077 whole entry): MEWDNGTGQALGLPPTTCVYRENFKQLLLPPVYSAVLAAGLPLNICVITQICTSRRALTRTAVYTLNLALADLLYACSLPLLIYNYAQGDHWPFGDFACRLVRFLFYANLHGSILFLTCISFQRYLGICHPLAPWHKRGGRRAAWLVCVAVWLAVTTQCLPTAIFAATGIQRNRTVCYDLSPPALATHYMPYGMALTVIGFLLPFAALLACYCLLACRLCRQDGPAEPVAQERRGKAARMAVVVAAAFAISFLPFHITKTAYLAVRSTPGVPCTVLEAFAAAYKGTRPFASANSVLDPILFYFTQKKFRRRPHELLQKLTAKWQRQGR
Description: as §1

168 GPCRs [5] = molecular target: T5, 168 GPCRs (Homo sapiens, UniProt Q9UBY5)
T5 construct: host or cells: PathHunter cell lines
T5 sequence (Q9UBY5 1-353): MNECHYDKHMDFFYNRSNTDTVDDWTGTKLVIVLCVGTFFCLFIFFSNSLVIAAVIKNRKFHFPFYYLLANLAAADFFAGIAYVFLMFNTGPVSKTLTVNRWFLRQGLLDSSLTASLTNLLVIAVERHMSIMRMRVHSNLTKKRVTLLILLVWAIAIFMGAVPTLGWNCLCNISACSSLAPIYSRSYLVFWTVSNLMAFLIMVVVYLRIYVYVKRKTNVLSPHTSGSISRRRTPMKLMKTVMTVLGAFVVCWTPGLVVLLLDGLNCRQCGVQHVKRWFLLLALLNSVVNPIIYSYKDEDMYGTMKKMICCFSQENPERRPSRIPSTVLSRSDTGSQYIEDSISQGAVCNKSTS
Description: as §1

168 GPCRs [6] = molecular target: T6, 168 GPCRs (Homo sapiens, UniProt Q03431); settings: PTHR1
T6 construct: host or cells: PathHunter cell lines
T6 sequence (Q03431 27-593): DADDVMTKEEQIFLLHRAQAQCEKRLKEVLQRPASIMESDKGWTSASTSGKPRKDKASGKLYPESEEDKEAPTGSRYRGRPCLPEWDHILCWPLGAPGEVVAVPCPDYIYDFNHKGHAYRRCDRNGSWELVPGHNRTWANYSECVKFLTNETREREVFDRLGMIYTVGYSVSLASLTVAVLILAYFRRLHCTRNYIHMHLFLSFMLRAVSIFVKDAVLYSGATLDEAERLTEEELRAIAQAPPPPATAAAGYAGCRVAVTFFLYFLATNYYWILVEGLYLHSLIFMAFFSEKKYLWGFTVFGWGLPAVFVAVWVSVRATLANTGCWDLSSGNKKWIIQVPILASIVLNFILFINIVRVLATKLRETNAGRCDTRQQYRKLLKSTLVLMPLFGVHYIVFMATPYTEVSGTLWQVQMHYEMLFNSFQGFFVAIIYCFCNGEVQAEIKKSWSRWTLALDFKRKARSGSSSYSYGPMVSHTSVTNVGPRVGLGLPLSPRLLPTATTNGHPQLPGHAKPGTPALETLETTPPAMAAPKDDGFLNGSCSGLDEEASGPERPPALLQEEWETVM
Description: as §1

168 GPCRs [7] = molecular target: T7, 168 GPCRs (Homo sapiens, UniProt Q16602)
T7 construct: host or cells: PathHunter cell lines
T7 sequence (Q16602 23-461): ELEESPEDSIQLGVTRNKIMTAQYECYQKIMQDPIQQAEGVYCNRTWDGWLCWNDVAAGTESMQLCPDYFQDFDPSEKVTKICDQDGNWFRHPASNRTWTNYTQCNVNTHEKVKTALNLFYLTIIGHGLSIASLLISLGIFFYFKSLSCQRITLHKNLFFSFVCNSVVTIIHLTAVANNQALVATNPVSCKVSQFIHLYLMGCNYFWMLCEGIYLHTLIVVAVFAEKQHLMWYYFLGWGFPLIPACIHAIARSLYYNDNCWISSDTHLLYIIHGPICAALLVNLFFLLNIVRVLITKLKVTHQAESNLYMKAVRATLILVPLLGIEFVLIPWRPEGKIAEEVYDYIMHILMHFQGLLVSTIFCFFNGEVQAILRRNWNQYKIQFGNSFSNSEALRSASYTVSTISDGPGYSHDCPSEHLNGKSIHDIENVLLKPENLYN
Description: as §1

168 GPCRs [8] = molecular target: T8, 168 GPCRs (Homo sapiens, UniProt P50391); settings: PPYR1
T8 construct: host or cells: PathHunter cell lines
T8 sequence (P50391 whole entry): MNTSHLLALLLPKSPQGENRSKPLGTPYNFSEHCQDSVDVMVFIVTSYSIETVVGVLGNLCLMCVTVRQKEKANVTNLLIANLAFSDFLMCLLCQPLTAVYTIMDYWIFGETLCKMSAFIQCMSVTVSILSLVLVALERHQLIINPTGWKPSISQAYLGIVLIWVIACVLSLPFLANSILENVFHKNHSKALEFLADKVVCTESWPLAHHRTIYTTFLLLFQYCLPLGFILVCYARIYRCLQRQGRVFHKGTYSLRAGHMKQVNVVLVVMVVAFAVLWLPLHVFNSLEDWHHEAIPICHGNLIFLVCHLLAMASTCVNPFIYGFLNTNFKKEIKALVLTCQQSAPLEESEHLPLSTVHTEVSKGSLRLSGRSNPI
Description: as §1

T1 sequence (P47872 23-440): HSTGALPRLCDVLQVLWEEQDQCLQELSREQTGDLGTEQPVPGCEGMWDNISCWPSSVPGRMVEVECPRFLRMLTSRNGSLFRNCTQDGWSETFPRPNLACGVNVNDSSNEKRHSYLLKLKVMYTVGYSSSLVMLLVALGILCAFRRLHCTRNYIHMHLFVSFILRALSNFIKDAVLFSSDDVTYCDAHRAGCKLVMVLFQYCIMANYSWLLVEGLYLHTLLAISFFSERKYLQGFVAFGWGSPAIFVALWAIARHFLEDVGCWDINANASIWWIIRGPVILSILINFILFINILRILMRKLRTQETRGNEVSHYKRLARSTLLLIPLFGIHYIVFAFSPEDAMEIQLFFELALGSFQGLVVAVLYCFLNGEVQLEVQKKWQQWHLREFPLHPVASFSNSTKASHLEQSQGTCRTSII

Structure (SMILES)	% Agonist Activity (168 GPCRs [1]; Conc 1 uM) [%]	% Antagonist Activity (168 GPCRs [1]; Conc 1 uM) [%]	% Agonist Activity (168 GPCRs [1]; Conc 10 uM) [%]	% Antagonist Activity (168 GPCRs [1]; Conc 10 uM) [%]	% Agonist Activity (168 GPCRs [2]; Conc 1 uM) [%]	% Antagonist Activity (168 GPCRs [2]; Conc 1 uM) [%]	% Agonist Activity (168 GPCRs [2]; Conc 10 uM) [%]	% Antagonist Activity (168 GPCRs [2]; Conc 10 uM) [%]	% Agonist Activity (168 GPCRs [3]; MCHR1, 1 uM) [%]	% Antagonist Activity (168 GPCRs [3]; MCHR1, 1 uM) [%]	% Agonist Activity (168 GPCRs [3]; MCHR1, 10 uM) [%]	% Antagonist Activity (168 GPCRs [3]; MCHR1, 10 uM) [%]	% Agonist Activity (168 GPCRs [4]; Conc 1 uM) [%]	% Antagonist Activity (168 GPCRs [4]; Conc 1 uM) [%]	% Agonist Activity (168 GPCRs [4]; Conc 10 uM) [%]	% Antagonist Activity (168 GPCRs [4]; Conc 10 uM) [%]	% Agonist Activity (168 GPCRs [5]; EDG7, 1 uM) [%]	% Antagonist Activity (168 GPCRs [5]; EDG7, 1 uM) [%]	% Agonist Activity (168 GPCRs [5]; EDG7, 10 uM) [%]	% Antagonist Activity (168 GPCRs [5]; EDG7, 10 uM) [%]	other results
CNC(C)C(=O)c1ccc2c(c1)OCO2 (centres unmarked) [methylone]	-2.6	5.3	-1.4	2.5	0.5	2.7	-0.3	6.6	3.9	-12.2	3.1	-18.3	4.5	6.5	2.4	2.6	3	19.5	1.1	17.9	% Agonist Activity (168 GPCRs [6]; Conc 1 uM): 0%; % Antagonist Activity (168 GPCRs [6]; Conc 1 uM): 2.2%; % Agonist Activity (168 GPCRs [6]; Conc 10 uM): 0.1%; % Antagonist Activity (168 GPCRs [6]; Conc 10 uM): -8.3%; % Agonist Activity (168 GPCRs [7]; CALCRL-RAMP1, 1 uM): -2.6%; % Antagonist Activity (168 GPCRs [7]; CALCRL-RAMP1, 1 uM): 4.7%; % Agonist Activity (168 GPCRs [7]; CALCRL-RAMP1, 10 uM): -0.2%; % Antagonist Activity (168 GPCRs [7]; CALCRL-RAMP1, 10 uM): 7%; % Agonist Activity (168 GPCRs [7]; CALCRL-RAMP2, 1 uM): 0.1%; % Antagonist Activity (168 GPCRs [7]; CALCRL-RAMP2, 1 uM): 19.1%; % Agonist Activity (168 GPCRs [7]; CALCRL-RAMP2, 10 uM): 2.8%; % Antagonist Activity (168 GPCRs [7]; CALCRL-RAMP2, 10 uM): 7%; % Agonist Activity (168 GPCRs [7]; CALCRL-RAMP3, 1 uM): -2.2%; % Antagonist Activity (168 GPCRs [7]; CALCRL-RAMP3, 1 uM): -18.5%; % Agonist Activity (168 GPCRs [7]; CALCRL-RAMP3, 10 uM): -2.2%; % Antagonist Activity (168 GPCRs [7]; CALCRL-RAMP3, 10 uM): -7.5%; % Agonist Activity (168 GPCRs [8]; Conc 1 uM): -1.7%; % Antagonist Activity (168 GPCRs [8]; Conc 1 uM): 9.5%; % Agonist Activity (168 GPCRs [8]; Conc 10 uM): -1.2%; % Antagonist Activity (168 GPCRs [8]; Conc 10 uM): 6.5%
CNC(C)Cc1ccc2c(c1)OCO2 (centres unmarked) [MDMA, 3,4-Methylenedioxy methamphetamine, reference compound]	0.1	-3.8	-1.9	7.4	0.3	17.9	0.7	9	-4	5.3	-4.4	2.1	4.9	2.5	4.6	1.2	-2.8	-7	-2.4	0.8	% Agonist Activity (168 GPCRs [6]; Conc 1 uM): 0%; % Antagonist Activity (168 GPCRs [6]; Conc 1 uM): -2.1%; % Agonist Activity (168 GPCRs [6]; Conc 10 uM): 0.1%; % Antagonist Activity (168 GPCRs [6]; Conc 10 uM): 7.7%; % Agonist Activity (168 GPCRs [7]; CALCRL-RAMP1, 1 uM): 0.3%; % Antagonist Activity (168 GPCRs [7]; CALCRL-RAMP1, 1 uM): 6.8%; % Agonist Activity (168 GPCRs [7]; CALCRL-RAMP1, 10 uM): -0.6%; % Antagonist Activity (168 GPCRs [7]; CALCRL-RAMP1, 10 uM): 8.1%; % Agonist Activity (168 GPCRs [7]; CALCRL-RAMP2, 1 uM): -1%; % Antagonist Activity (168 GPCRs [7]; CALCRL-RAMP2, 1 uM): 28.7%; % Agonist Activity (168 GPCRs [7]; CALCRL-RAMP2, 10 uM): 0.9%; % Antagonist Activity (168 GPCRs [7]; CALCRL-RAMP2, 10 uM): 30.8%; % Agonist Activity (168 GPCRs [7]; CALCRL-RAMP3, 1 uM): -0.9%; % Antagonist Activity (168 GPCRs [7]; CALCRL-RAMP3, 1 uM): -8.1%; % Agonist Activity (168 GPCRs [7]; CALCRL-RAMP3, 10 uM): -1.4%; % Antagonist Activity (168 GPCRs [7]; CALCRL-RAMP3, 10 uM): -13%; % Agonist Activity (168 GPCRs [8]; Conc 1 uM): 0.3%; % Antagonist Activity (168 GPCRs [8]; Conc 1 uM): 5.9%; % Agonist Activity (168 GPCRs [8]; Conc 10 uM): 0.9%; % Antagonist Activity (168 GPCRs [8]; Conc 10 uM): 6.9%

— PMC10882719 (Frontiers in Neuroscience, 2024)
